Assay results as given in ChEMBL document CHEMBL1127918, “The role of peptide bond in chemotactic for-met-leu-phe-ome focused by depsipeptide analogs” (1994).
Where a SMILES comes first, the peptide text is derived from it. [ ]: non-standard residue; d: D form. The star is where a group is joined. PhLac = O=C(O)[C@@H](O)Cc1ccccc1; NHBn = c1ccc(CN*)cc1; For = O=C*

Columns and labels:
Type in all cases: functional
[1] = organism: Homo sapiens; test: (§1) Chemotactic activity was expressed as percentage of random locomotion
[2] = organism: Homo sapiens; test: (§2) Superoxide anion release expressed as n moles of superoxide anion/2E6 neutrophils/5 min
[3] = organism: Homo sapiens; test: as §1; remark: listed apart in the source
[4] = organism: Homo sapiens; test: as §2; remark: listed apart in the source
[5] = organism: Homo sapiens; test: as §1; remark: listed apart in the source
[6] = organism: Homo sapiens; test: as §2; remark: listed apart in the source
[7] = organism: Homo sapiens; test: lysozyme release expressed as percentage of total enzyme content released by 0.1% Triton X-100
[8] = organism: Homo sapiens; test: Chemotactic activity was expressed as percentage of random locomotion of human neutrophils
[9] = organism: Homo sapiens; test: Chemotactic activity was expressed as percentage of random locomotion human neutrophils

**Q.** Which “Chemotactic activity (% of random locomotion)” value [1] does the source give for `COC(=O)[C@H](Cc1ccccc1)NC(=O)[C@H](CC(C)C)NC(=O)[C@H](CCSC)NC=O` here?
**A.** Its value is 36.

**Q.** And the Superoxide anion release [2]?
**A.** The Superoxide anion release was 37.

**Q.** And the “Chemotactic activity (% of random locomotion)” value [3]?
**A.** Its value is 62.

**Q.** And the Superoxide anion release [4]?
**A.** The Superoxide anion release was 43.

**Q.** What about the “Chemotactic activity (% of random locomotion)” value [5] of the same compound?
**A.** Its value is 85.

**Q.** And the “chemotactic activity (% of random locomotion) at 10^-8 M” value [5]?
**A.** The value was 105.

**Q.** And the Superoxide anion release [6]?
**A.** The Superoxide anion release was 44.

**Q.** What about the “Superoxide anion release at 10^-8 M” value [6] of the same compound?
**A.** The value was 7.

**Q.** What about the “Log [-5]” value [7] of the same compound?
**A.** The value was 62.

**Q.** And the “Log [-6]” value [7]?
**A.** The value was 67.

**Q.** What about the “Log [-7]” value [7] of the same compound?
**A.** The value was 59.

**Q.** What about the “Log [-8]” value [7] of the same compound?
**A.** Its value is 54.

**Q.** And the “Chemotactic activity at 10^-10 M (% of random locomotion)” value [8]?
**A.** The value was 105.

**Q.** What about the “Log [-9]” value [8] of the same compound?
**A.** Its value is 115.

**Q.** For `COC(=O)[C@H](Cc1ccccc1)NC(=O)[C@H](CC(C)C)OC(=O)[C@H](CCSC)NC=O`, which “Chemotactic activity (% of random locomotion)” value [1] is on record?
**A.** The value was 10.

**Q.** And the Superoxide anion release [2]?
**A.** Its Superoxide anion release is 0.

**Q.** What about the “Chemotactic activity (% of random locomotion)” value [3] of the same compound?
**A.** Its value is 9.

**Q.** What about the Superoxide anion release [4] of the same compound?
**A.** Its Superoxide anion release is 0.

**Q.** What about the “Chemotactic activity (% of random locomotion)” value [5] of the same compound?
**A.** Its value is 13.

**Q.** What about the “chemotactic activity (% of random locomotion) at 10^-8 M” value [5] of the same compound?
**A.** The value was 8.

**Q.** What about the Superoxide anion release [6] of the same compound?
**A.** Its Superoxide anion release is 0.

**Q.** What about the “Superoxide anion release at 10^-8 M” value [6] of the same compound?
**A.** The value was 0.

**Q.** What about the “Log [-5]” value [7] of the same compound?
**A.** Its value is 10.

**Q.** What about the “Log [-6]” value [7] of the same compound?
**A.** The value was 12.

**Q.** What about the “Log [-7]” value [7] of the same compound?
**A.** The value was 10.

**Q.** What about the “Log [-8]” value [7] of the same compound?
**A.** Its value is 11.

**Q.** And the “Log [-9]” value [9]?
**A.** The value was 11.

**Q.** What about the “Chemotactic activity at 10^-10 M (% of random locomotion)” value [8] of the same compound?
**A.** The value was 0.

**Q.** With `CSCC[C@H](NC=O)C(=O)N[C@@H](CC(C)C)C(=O)O[C@@H](Cc1ccccc1)C(=O)NCc1ccccc1` (For-Met-Leu-[PhLac]-NHBn) as the compound, how does the “Chemotactic activity (% of random locomotion)” value [1] read?
**A.** Its value is 20.

**Q.** And the Superoxide anion release [2]?
**A.** Its Superoxide anion release is 32.

**Q.** And the “Chemotactic activity (% of random locomotion)” value [3]?
**A.** Its value is 55.

**Q.** What about the Superoxide anion release [4] of the same compound?
**A.** Its Superoxide anion release is 24.

**Q.** And the “Chemotactic activity (% of random locomotion)” value [5]?
**A.** Its value is 51.

**Q.** What about the “chemotactic activity (% of random locomotion) at 10^-8 M” value [5] of the same compound?
**A.** The value was 51.

**Q.** What about the Superoxide anion release [6] of the same compound?
**A.** The Superoxide anion release was 14.

**Q.** What about the “Superoxide anion release at 10^-8 M” value [6] of the same compound?
**A.** The value was 8.

**Q.** And the “Log [-5]” value [7]?
**A.** The value was 40.

**Q.** What about the “Log [-6]” value [7] of the same compound?
**A.** Its value is 38.

**Q.** And the “Log [-7]” value [7]?
**A.** Its value is 35.

**Q.** What about the “Log [-8]” value [7] of the same compound?
**A.** The value was 24.

**Q.** And the “Chemotactic activity at 10^-10 M (% of random locomotion)” value [8]?
**A.** The value was 62.

**Q.** And the “Log [-9]” value [8]?
**A.** The value was 54.

**Q.** `COC(=O)[C@H](Cc1ccccc1)NC(=O)C(C)(N)COC(=O)[C@H](CCSC)NC=O` (stereo partly specified) was tested. Which “Chemotactic activity (% of random locomotion)” value [1] did it give?
**A.** The value was 4.

**Q.** And the Superoxide anion release [2]?
**A.** The Superoxide anion release was 0.

**Q.** And the “Chemotactic activity (% of random locomotion)” value [3]?
**A.** The value was 7.

**Q.** What about the Superoxide anion release [4] of the same compound?
**A.** The Superoxide anion release was 0.

**Q.** What about the “Chemotactic activity (% of random locomotion)” value [5] of the same compound?
**A.** The value was 14.

**Q.** What about the “chemotactic activity (% of random locomotion) at 10^-8 M” value [5] of the same compound?
**A.** Its value is 14.

**Q.** And the Superoxide anion release [6]?
**A.** Its Superoxide anion release is 0.

**Q.** What about the “Superoxide anion release at 10^-8 M” value [6] of the same compound?
**A.** The value was 0.

**Q.** And the “Log [-5]” value [7]?
**A.** Its value is 15.

**Q.** What about the “Log [-6]” value [7] of the same compound?
**A.** The value was 13.

**Q.** And the “Log [-7]” value [7]?
**A.** Its value is 11.

**Q.** And the “Log [-8]” value [7]?
**A.** Its value is 15.

**Q.** And the “Chemotactic activity at 10^-10 M (% of random locomotion)” value [8]?
**A.** Its value is 10.

**Q.** What about the “Log [-9]” value [8] of the same compound?
**A.** Its value is 9.
